Laboratory results from patent publication US9486506B2 (Novo Nordisk A/S, priority 2011, dated 2016).
Numbered stars: 1 amine (or outer) side, 2 acyl side, 3 side chain; on linkers, the order of the positions; unused ones are H or OH. Side chains are listed from the residue outwards. Peptide text beside a SMILES is read from it. * marks the point of attachment. C18 diacid = O=C(O)CCCCCCCCCCCCCCCCC(=O)*; C16 diacid = O=C(O)CCCCCCCCCCCCCCC(=O)*; γGlu = O=C(O)[C@H](CCC(=O)[*:2])N[*:1]; AEEA = NCCOCCOCC(=O)O

Columns and labels:
[1] = Assay (X) Chemical stability assessment by RP-UPLC; type: physicochemical; conditions: pH 8.15, 14 days at 37° C. vs 5° C., 333 μM
glucagon receptor = target: T1, glucagon receptor (Homo sapiens, UniProt P47871); test: Assay (I) Glucagon activity (cAMP biosensor, FLIPR); type: cell-based
T1 construct: expressed in transfected cells
T1 sequence (P47871 26-477): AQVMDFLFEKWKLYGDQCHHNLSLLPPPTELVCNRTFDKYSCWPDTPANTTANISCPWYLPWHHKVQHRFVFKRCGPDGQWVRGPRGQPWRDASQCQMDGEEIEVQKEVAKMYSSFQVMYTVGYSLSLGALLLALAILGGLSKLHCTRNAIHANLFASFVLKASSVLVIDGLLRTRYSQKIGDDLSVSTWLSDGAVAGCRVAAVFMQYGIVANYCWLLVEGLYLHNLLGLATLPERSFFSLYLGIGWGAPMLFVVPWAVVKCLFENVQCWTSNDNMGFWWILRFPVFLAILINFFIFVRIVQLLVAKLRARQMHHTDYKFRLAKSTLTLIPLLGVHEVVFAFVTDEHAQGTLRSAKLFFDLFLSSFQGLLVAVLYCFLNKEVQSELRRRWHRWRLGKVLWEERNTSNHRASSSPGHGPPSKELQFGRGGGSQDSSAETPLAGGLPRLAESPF

SMILES	Chemical stability [Purity loss/14 days 37 C.] [1]	EC50 (glucagon receptor)
CC(C)C[C@H](NC(=O)[C@H](Cc1ccc(O)cc1)NC(=O)[C@H](CCCCN)NC(=O)[C@H](CO)NC(=O)[C@@H](NC(=O)[C@H](CC(=O)O)NC(=O)[C@H](CO)NC(=O)[C@@H](NC(=O)[C@H](Cc1ccccc1)NC(=O)[C@@H](NC(=O)CNC(=O)[C@H](CCC(N)=O)NC(=O)[C@H](CO)NC(=O)[C@@H](N)Cc1c[nH]cn1)[C@@H](C)O)[C@@H](C)O)C(C)C)C(=O)N[C@@H](CCC(=O)O)C(=O)N[C@@H](CO)C(=O)N[C@@H](CCCNC(=N)N)C(=O)N[C@@H](CCCNC(=N)N)C(=O)N[C@@H](C)C(=O)N[C@@H](CCC(N)=O)C(=O)N[C@@H](CCC(=O)O)C(=O)N[C@@H](Cc1ccccc1)C(=O)N[C@H](C(=O)N[C@@H](CCCCNC(=O)CC[C@H](NC(=O)CC[C@H](NC(=O)CC[C@H](NC(=O)CC[C@H](NC(=O)CCCCCCCCCCCCCCCCC(=O)O)C(=O)O)C(=O)O)C(=O)O)C(=O)O)C(=O)N[C@@H](Cc1c[nH]c2ccccc12)C(=O)N[C@@H](CC(C)C)C(=O)N[C@@H](CC(C)C)C(=O)N[C@@H](CO)C(=O)N[C@H](C(=O)O)[C@@H](C)O)C(C)C [Example 50, N^ε24-[(4S)-4-carboxy-4-[[(4S)-4-carboxy-4-[[(4S)-4-carboxy-4-[[(4S)-4-carboxy-4-(17-carboxyheptadecanoylamino)butanoyl]amino]butanoyl]amino]butanoyl]amino]butanoy]-[Val10,Glu15,Glu21,Lys24,Leu27,Ser28]-Glucagon] (H-HSQGTFTSDVSKYLESRRAQEFVK([γGlu-γGlu-γGlu-γGlu-C18 diacid])WLLST-OH)	4.8%	0.118 nM
CC(C)C[C@H](NC(=O)[C@H](Cc1ccc(O)cc1)NC(=O)[C@H](CCCNC(=N)N)NC(=O)[C@H](CO)NC(=O)[C@H](Cc1ccc(O)cc1)NC(=O)[C@H](CC(=O)O)NC(=O)[C@H](CO)NC(=O)[C@@H](NC(=O)[C@H](Cc1ccccc1)NC(=O)[C@@H](NC(=O)CNC(=O)[C@H](CCC(N)=O)NC(=O)[C@H](CO)NC(=O)[C@@H](N)Cc1c[nH]cn1)[C@@H](C)O)[C@@H](C)O)C(=O)N[C@@H](CC(=O)O)C(=O)N[C@@H](C)C(=O)N[C@@H](CCCNC(=N)N)C(=O)N[C@@H](CCCNC(=N)N)C(=O)N[C@@H](C)C(=O)N[C@@H](CCC(N)=O)C(=O)N[C@@H](CC(=O)O)C(=O)N[C@@H](Cc1ccccc1)C(=O)N[C@H](C(=O)N[C@@H](CCCCNC(=O)CC[C@H](NC(=O)CC[C@H](NC(=O)COCCOCCNC(=O)COCCOCCNC(=O)CC[C@H](NC(=O)CCCCCCCCCCCCCCC(=O)O)C(=O)O)C(=O)O)C(=O)O)C(=O)N[C@@H](Cc1c[nH]c2ccccc12)C(=O)N[C@@H](CC(C)C)C(=O)N[C@@H](CC(C)C)C(=O)N[C@@H](CO)C(=O)N[C@H](C(=O)O)[C@@H](C)O)C(C)C [Example 84, N^ε24-[(4S)-4-carboxy-4-[[(4S)-4-carboxy-4-[[2-[2-[2-[[2-[2-[2-[[(4S)-4-carboxy-4-(15-carboxypentadecanoylamino)butanoyl]amino]ethoxy]ethoxy]acetyl]amino]ethoxy]ethoxy]acetyl]amino]butanoyl]amino]butanoyl]-[Arg12,Ala16,Lys24,Leu27,Ser28]-Glucagon] (H-HSQGTFTSDYSRYLDARRAQDFVK([γGlu-γGlu-AEEA-AEEA-γGlu-C16 diacid])WLLST-OH)	10.7%	0.022 nM
CC(C)C[C@H](NC(=O)[C@H](Cc1c[nH]c2ccccc12)NC(=O)[C@H](CCCCNC(=O)CC[C@H](NC(=O)CC[C@H](NC(=O)COCCOCCNC(=O)COCCOCCNC(=O)CC[C@H](NC(=O)CCCCCCCCCCCCCCCCC(=O)O)C(=O)O)C(=O)O)C(=O)O)NC(=O)[C@@H](NC(=O)[C@H](Cc1ccccc1)NC(=O)[C@H](CC(=O)O)NC(=O)[C@H](CCC(N)=O)NC(=O)[C@H](C)NC(=O)[C@H](CCCNC(=N)N)NC(=O)[C@H](CCCNC(=N)N)NC(=O)[C@@H](NC(=O)[C@H](CC(=O)O)NC(=O)[C@H](CC(C)C)NC(=O)[C@H](Cc1ccc(O)cc1)NC(=O)[C@H](CCCCN)NC(=O)[C@H](CO)NC(=O)[C@H](Cc1ccc(O)cc1)NC(=O)[C@H](CC(=O)O)NC(=O)[C@H](CO)NC(=O)[C@@H](NC(=O)[C@H](Cc1ccccc1)NC(=O)[C@@H](NC(=O)CNC(=O)[C@H](CCC(N)=O)NC(=O)[C@H](CO)NC(=O)[C@@H](N)Cc1c[nH]cn1)[C@@H](C)O)[C@@H](C)O)[C@@H](C)O)C(C)C)C(=O)N[C@@H](CC(C)C)C(=O)N[C@@H](CO)C(=O)N[C@H](C(=O)O)[C@@H](C)O [Example 12, N^ε24-[(4S)-4-carboxy-4-[[(4S)-4-carboxy-4-[[2-[2-[2-[[2-[2-[2-[[(4S)-4-carboxy-4-(17-carboxyheptadecanoylamino)butanoyl]amino]ethoxy]ethoxy]acetyl]amino]ethoxy]ethoxy]acetyl]amino]butanoyl]amino]butanoyl]-[Thr^16,Lys^24,Leu^27,Ser^28]-Glucagon]	7.0%	0.075 nM
CC(C)C[C@H](NC(=O)[C@H](Cc1c[nH]c2ccccc12)NC(=O)[C@H](CCCCNC(=O)CC[C@H](NC(=O)CC[C@H](NC(=O)COCCOCCNC(=O)COCCOCCNC(=O)CC[C@H](NC(=O)CCCCCCCCCCCCCCCCC(=O)O)C(=O)O)C(=O)O)C(=O)O)NC(=O)[C@@H](NC(=O)[C@H](Cc1ccccc1)NC(=O)[C@H](CC(=O)O)NC(=O)[C@H](CCC(N)=O)NC(=O)[C@H](C)NC(=O)[C@H](CCCNC(=N)N)NC(=O)[C@H](CCCNC(=N)N)NC(=O)[C@@H](NC(=O)[C@H](CC(=O)O)NC(=O)[C@H](CC(C)C)NC(=O)[C@H](Cc1ccc(O)cc1)NC(=O)[C@H](CCCNC(=N)N)NC(=O)[C@H](CO)NC(=O)[C@H](Cc1ccc(O)cc1)NC(=O)[C@H](CC(=O)O)NC(=O)[C@H](CO)NC(=O)[C@@H](NC(=O)[C@H](Cc1ccccc1)NC(=O)[C@@H](NC(=O)CNC(=O)[C@H](CCC(N)=O)NC(=O)[C@H](CO)NC(=O)[C@@H](N)Cc1c[nH]cn1)[C@@H](C)O)[C@@H](C)O)[C@@H](C)O)C(C)C)C(=O)N[C@@H](CC(C)C)C(=O)N[C@@H](CO)C(=O)N[C@H](C(=O)O)[C@@H](C)O [Example 22, N^ε24-[(4S)-4-carboxy-4-[[(4S)-4-carboxy-4-[[2-[2-[2-[[2-[2-[2-[[(4S)-4-carboxy-4-(17-carboxyheptadecanoylamino)butanoyl]amino]ethoxy]ethoxy]acetyl]amino]ethoxy]ethoxy]acetyl]amino]butanoyl]amino]butanoyl]-[Arg^12,Thr^16,Lys^24,Leu^27,Ser^28]-Glucagon] (H-HSQGTFTSDYSRYLDTRRAQDFVK([γGlu-γGlu-AEEA-AEEA-γGlu-C18 diacid])WLLST-OH)	8.8%	0.297 nM
CC(C)C[C@H](NC(=O)[C@H](Cc1ccc(O)cc1)NC(=O)[C@H](CCCCN)NC(=O)[C@H](CO)NC(=O)[C@H](Cc1ccc(O)cc1)NC(=O)[C@H](CC(=O)O)NC(=O)[C@H](CO)NC(=O)[C@@H](NC(=O)[C@H](Cc1ccccc1)NC(=O)[C@@H](NC(=O)CNC(=O)[C@H](CCC(N)=O)NC(=O)[C@H](CO)NC(=O)[C@@H](N)Cc1c[nH]cn1)[C@@H](C)O)[C@@H](C)O)C(=O)N[C@@H](CCC(=O)O)C(=O)N[C@@H](CO)C(=O)N[C@@H](CCCNC(=N)N)C(=O)N[C@@H](CCCNC(=N)N)C(=O)N[C@@H](C)C(=O)N[C@@H](CCC(N)=O)C(=O)N[C@@H](CC(=O)O)C(=O)N[C@@H](Cc1ccccc1)C(=O)N[C@H](C(=O)N[C@@H](CCCCNC(=O)CC[C@H](NC(=O)CC[C@H](NC(=O)COCCOCCNC(=O)COCCOCCNC(=O)CC[C@H](NC(=O)CCCCCCCCCCCCCCCCC(=O)O)C(=O)O)C(=O)O)C(=O)O)C(=O)N[C@@H](Cc1c[nH]c2ccccc12)C(=O)N[C@@H](CC(C)C)C(=O)N[C@@H](CC(C)C)C(=O)N[C@@H](CO)C(=O)N[C@H](C(N)=O)[C@@H](C)O)C(C)C [Example 58, N^ε24-[(4S)-4-carboxy-4-[[(4S)-4-carboxy-4-[[2-[2-[2-[[2-[2-[2-[[(4S)-4-carboxy-4-(17-carboxyheptadecanoylamino)butanoyl]amino]ethoxy]ethoxy]acetyl]amino]ethoxy]ethoxy]acetyl]amino]butanoyl]amino]butanoyl]-[Glu15,Lys24,Leu27,Ser28]-Glucagon amide]	7.3%	0.134 nM
CC(C)C[C@H](NC(=O)[C@H](Cc1ccc(O)cc1)NC(=O)[C@H](CCCNC(=N)N)NC(=O)[C@H](CO)NC(=O)[C@H](Cc1ccc(O)cc1)NC(=O)[C@H](CC(=O)O)NC(=O)[C@H](CO)NC(=O)[C@@H](NC(=O)[C@H](Cc1ccccc1)NC(=O)[C@@H](NC(=O)CNC(=O)[C@H](CCC(N)=O)NC(=O)[C@H](CO)NC(=O)[C@@H](N)Cc1c[nH]cn1)[C@@H](C)O)[C@@H](C)O)C(=O)N[C@@H](CC(=O)O)C(=O)N[C@@H](CCCNC(=N)N)C(=O)N[C@@H](CCCNC(=N)N)C(=O)N[C@@H](CCCNC(=N)N)C(=O)N[C@@H](C)C(=O)N[C@@H](CCC(N)=O)C(=O)N[C@@H](CC(=O)O)C(=O)N[C@@H](Cc1ccccc1)C(=O)N[C@H](C(=O)N[C@@H](CCCCNC(=O)CC[C@H](NC(=O)CC[C@H](NC(=O)COCCOCCNC(=O)COCCOCCNC(=O)CC[C@H](NC(=O)CCCCCCCCCCCCCCCCC(=O)O)C(=O)O)C(=O)O)C(=O)O)C(=O)N[C@@H](Cc1c[nH]c2ccccc12)C(=O)N[C@@H](CC(C)C)C(=O)N[C@@H](CC(C)C)C(=O)N[C@@H](CO)C(=O)N[C@H](C(=O)O)[C@@H](C)O)C(C)C [Example 20, N^ε24-[(4S)-4-carboxy-4-[[(4S)-4-carboxy-4-[[2-[2-[2-[[2-[2-[2-[[(4S)-4-carboxy-4-(17-carboxyheptadecanoylamino)butanoyl]amino]ethoxy]ethoxy]acetyl]amino]ethoxy]ethoxy]acetyl]amino]butanoyl]amino]butanoyl]-[Arg^12,Arg^16,Lys^24,Leu^27,Ser^28]-Glucagon] (H-HSQGTFTSDYSRYLDRRRAQDFVK([γGlu-γGlu-AEEA-AEEA-γGlu-C18 diacid])WLLST-OH)	10.4%	0.355 nM
